Key:
[1] = tested on: optic nerve/lamina cribrosa complex; experiment: Surface wave velocity (stiffness) across the optic nerve/lamina cribrosa complex of whole globes, Sonic Eye elastometer; parameters: species or system porcine; conditions: for Mean ON/LCC Stiffness, After Glutaraldehyde Crosslinking: Example 2, GTA annular sponge on PS only ~30 min
Method: Surface wave velocity (SWV) is a measure of tissue stiffness, and is performed by detecting the velocity of an ultrasonic wave between 2 points (Sonic Eye, Priavision, Menlo Park, Calif.) (Dupps W J, et al., J Refract Surg; 23: 66-75 (2007)). 19 porcine eyes were divided into 2 groups. In group 1 (6 eyes), the SWV across the exposed optic nerve/lamina cribrosa complex (ON/LCC) was initially measured at the eyes' physiologic IOP and at 100 mmHg. The porcine globes were cannulated with IV tubing to facilitate the change in IOP. In group 2 (13 eyes), the pre-treatment SWV was measured across the same region and atop the peri-papillary sclera, after which both regions were treated with riboflavin 1%, Q 5 min×6, and UVA irradiation (˜365 nm at 3 mW/cm^2) for 30 min per eye. The SWV was then re-measured in each eye at the pre-treatment IOP and at 100 mmHg.
An annular sponge soaked in GTA was exposed to the peripapillary sclera for ˜30 minutes, and not the ON/LCC. Measurements were repeated as above, but also along each quadrant of peripapillary sclera to ensure uniformity and symmetry of crosslinking around the ON/LCC. The results are summarized as follows:
Eighteen porcine globes were divided evenly into 3 groups. The optic nerves were transected to expose the ON/LC, and each globe was infused through an in-line pressure transducer for direct IOP control. Surface wave velocity, a non-destructive measure of tissue stiffness, was measured across the ON/LC and PS before and after collagen crosslinking at IOP of 10 and 30 mmHg (groups 1 and 2) and at each globe's preinflation IOP and 80 mmHg (group 3). In group 3, papillary strain was measured by analyzing the displacement of fiducial marks immediately adjacent to the ON/LC using digital photography.
Surface wave velocity (SWV) is a measure of tissue stiffness that has been used in dermatologic applications to measure age-related changes (Potts R O, et al., J Invest Dermatol.; 82(1):97-100 (1984); Potts R O, et al., J Biomech.; 16(6):365-372 (1983); Davis B R, et al., Exp Gerontol; 24(3):201-210 (1989)), softening effects of tissue hydration and skin creams (Vexler A, et al., J Invest Dermatol; 113(5):732-739 (1999)), and sclerosing effects of radiation on breast skin (Gorodetsky R, et al., Int J Radiat Oncol Biol Phys.; 45(4):893-900 (1999)). When acoustic waves in the 0.5 to 30 kHz frequency range are used, propagation speed in skin is related to the density and stiffness of the tissue (Pereira J M, et al., J Biomech.; 23(8):745-751 (1990)). A prototype handheld ocular surface elastometer (Sonic Eye, Priavision, Menlo Park, Calif.) with an operating frequency within this range (4 kHz) and a fixed 4.5 mm wave propagation distance has been described in detail elsewhere (Dupps W J Jr, et al., J Refract Surg.; 23(1):66-75 (2007)). The Sonic Eye was used in this study as a non-destructive means of measuring local in situ tissue stiffness across and around the optic nerve head.
Eighteen porcine eyes were obtained from a local abattoir (Heffelfingers Meats, Inc., Jeromesville, Ohio) and were used within 24 hours postmortem. The optic nerves were dissected under microscopic visualization to expose the ON/LC (FIG. 1). […]
Three experimental groups of 6 eyes each were defined. In group 1, SWV across the optic nerve/lamina cribrosa complex and peripapillary scleral regions of interest were measured at 10 and 30 mmHg to represent a physiological range of pressures. […]

[2] = tested on: peripapillary sclera; experiment: Estimate of PS ring elastic (secant) modulus by LaPlace equation and measured strain; parameters: species or system porcine
Description: By a similar analysis of strain across the ON in the same eyes, the pressure-induced change in ON diameter was 10.5±3.9% horizontally and 9.4±6.5% vertically prior to crosslinking. The combined vertical and horizontal strain averaged 7.3±4.4% across the PS ring and 10.2±5.4% across the ON/LC region alone (p=0.22). […] The native stiffness value compares favorably to the porcine scleral modulus of 500 kPa measured by Pierscionek B K, et al., Br J Opthalmol.; 91(6):801-803 (2007) particularly since their measurement was obtained at a lower peak pressure (50 mmHg) and was obtained from the entire sclera, which incorporates the thinner and effectively more elastic sclera anterior to the posterior pole (Olsen T W, et al., Invest Opthalmol Vis Sci; 43(8):2529-2532 (2002)).
The elastic modulus (E) of peripapillary sclera (PS) in Group 3 was estimated before and after crosslinking. First, measured PS strain was […] the circumferential stress as derived from the LaPlace equation, σ=IOP×R/2t, where σ indicates the circumferential stress as a function of IOP, scleral radius of curvature (R), and sclera thickness (t). […]

O=CCCCC=O [GTA, glutaraldehyde]
Mean ON/LCC Stiffness, After Glutaraldehyde Crosslinking ([1]; mean IOP 3 mmHg): 29.5 m/s
Mean ON/LCC Stiffness, After Glutaraldehyde Crosslinking ([1]; mean IOP 80 mmHg): 29.3 m/s
Stiffness of Optic Nerve/Lamina Cribrosa Complex, Post-crosslinking Mean ± SD ([1]; Example 3 Group 3, 4% GTA on PS only 30 min, Low IOP = pre-inflation 2-4 mmHg): 29.5±2.9 m/s
PS ring elastic modulus after crosslinking (estimate) ([2]; Group 3, GTA, stress increment 4 to 80 mmHg divided by crosslinked strain): 16.1 MPa
Increase in stiffness (elastic modulus) of peripapillary sclera with crosslinking ([2]; glutaraldehyde-mediated crosslinking, estimate): ~20 fold
